From patent US4328214A, “Cyclopeptides and pharmaceutical preparations thereof and also processes for their manufacture” (Ciba-Geigy Corporation, priority 1979, dated 1982)

Tested on: insulin and glucagon release
Assay: determination of insulin and glucagon release using the isolated perfused pancreas of a rat
Settings: multiple of the reference's inhibitory effect

[D-Trp^8 ; β-(1-naphthyl)-Gaba^12 ]-cyclosomatostatin(5-12)-octapeptide [formula ID diastereoisomeric mixture]
inhibitory effect relative to [D-Trp^8 ; Gaba^12 ]-cyclosomatostatin(5-12)-octapeptide (formula M, p=1): approximately 10 times
